Patent US6737383B1, “Herbicidal oxadiazolidines” (priority 1999, dated 2004)

What was measured:
crabgrass = experiment: Test B pre/postemergence crabgrass; assay type: in vivo, Digitaria sanguinalis
How it was run: (§1)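 Herbicidal effect was estimated by eye on a ten-point control scale after plants spent twelve to sixteen days in a greenhouse following soil or foliar treatment. Foliar sprays targeted plants at one to four leaves; all doses were formulated in a non-phytotoxic solvent with surfactant.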

giant foxtail = experiment: Test B pre/postemergence giant foxtail; assay type: in vivo, Setaria faberii
How it was run: as §1

wheat = experiment: Test B pre/postemergence wheat; assay type: in vivo, Triticum aestivum
How it was run: as §1

duck salad = experiment: Test B flood test duck salad; assay type: in vivo, Heteranthera limosa
How it was run: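 Plants were grown to the 2-leaf stage before treatment with test chemical, then held in a greenhouse for twelve to sixteen days. Injury was visually rated against untreated controls on a 0–10 scale, where 0 is no effect and 10 is complete control.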

common pursiane = experiment: Test D common purslane; assay type: in vivo, Portulaca oleracea; settings: Preemergence, 0 to 100 scale
How it was run: (§2)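 Seeds were sown in greenhouse pots, one species per pot or compartment. Compounds were in a non-phytotoxic solvent mixture with surfactant; preemergence applications went on the sandy loam surface within one day of planting. Injury was rated visually after 14 to 21 days, 0 (none) to 100 (complete control).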

large crabgrass = experiment: Test D large crabgrass; assay type: in vivo, Digitaria sanguinalis; settings: Preemergence, 0 to 100 scale
How it was run: as §2

sandbur = experiment: Test D sandbur; assay type: in vivo, Cenchrus echinatus; settings: Preemergence, 0 to 100 scale
How it was run: as §2

Spanishneedles = experiment: Test D Spanishneedles; assay type: in vivo, Bidens bipinnata; settings: Preemergence, 0 to 100 scale
How it was run: as §2

winter wheat [1] = experiment: Test E winter wheat; assay type: in vivo, Triticum aestivum; settings: Postemergence
How it was run: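 For postemergence, plants at the 1- to 4-leaf stage, in a 60:40 mix of sandy loam and potting mix, treated with compound formulated in a surfactant-containing non-phytotoxic solvent. Visual assessment versus untreated controls followed roughly 21–28 days in the greenhouse.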

blackgrass = experiment: Test E blackgrass; assay type: in vivo, Alopecurus myosuroides; settings: Preemergence
green foxtail = experiment: Test E green foxtail; assay type: in vivo, Setaria viridis; settings: Preemergence
Italian ryegrass = experiment: Test E Italian ryegrass; assay type: in vivo, Lolium multiflorum; settings: Preemergence
winter wheat [2] = experiment: Test E winter wheat; assay type: in vivo, Triticum aestivum; settings: Preemergence
wild oat = experiment: Test E wild oat; assay type: in vivo, Avena fatua; settings: Preemergence, 0 to 100 scale where 0 is no effect and 100 is complete control
winter barley = experiment: Test E winter barley; assay type: in vivo, Hordeum vulgare; settings: Preemergence
[3] = Postemergence, Rate 62 g/ha, scale 0 to 10, 0 is no effect, 10 is complete control
[4] = Postemergence, Rate 250 g/ha, scale 0 to 10, 0 no effect, 10 complete control
[5] = Preemergence, Rate 62 g/ha, scale 0 to 10, 0 is no effect, 10 is complete control
[6] = Preemergence, Rate 125 g/ha, scale 0 to 10 (0 no effect, 10 complete control)
[7] = Preemergence, Rate 250 g/ha, scale of 0 to 10 where 0 is no effect and 10 is complete control
[8] = Preemergence, Rate 500 g/ha, scale 0 (no effect) to 10 (complete control)
[9] = Rate 125 g/ha, Postemergence, scale 0 to 10, 0 no effect, 10 complete control
[10] = Rate 500 g/ha, Postemergence, 0 to 10 scale (0 no effect, 10 complete control)
[11] = Rate 16 g/ha, 0 no injury, 100 complete control
[12] = Rate 32 g/ha, 0 no injury, 100 complete control
[13] = Rate 64 g/ha, 0 no injury, 100 complete control
[14] = Rate 125 g/ha, 0 no injury, 100 complete control
[15] = Rate 500 g/ha, 0 to 100 scale where 0 is no effect and 100 is complete control
[16] = Rate 1000 g/ha, 0 to 100 scale where 0 is no effect and 100 is complete control

Cc1cccc(C)c1-n1c(=O)on(C(=O)N(c2ccccc2)C(C)C)c1=O [Compound 46]
98: Plant response rating, Large crabgrass (large crabgrass; [14])
50: Plant response rating, I. Ryegrass (Italian ryegrass; Rate 250 g/ha, 0 to 100 scale) | Plant response rating, Wheat (winter) (winter wheat [2]; [16]) | Plant response rating, Barley (winter) (winter barley; [16])
100: Plant response rating, Large crabgrass (large crabgrass; Rate 250 g/ha) | Plant response rating, Large crabgrass (large crabgrass; Rate 500 g/ha)
1: Plant response rating, Crabgrass (crabgrass; [5]) | Giant foxtail plant response rating (giant foxtail; [4]) | Giant foxtail plant response rating (giant foxtail; [9])
20: Plant response rating, Large crabgrass (large crabgrass; [12]) | Plant response rating, Spanishneedles (Spanishneedles; Rate 500 g/ha)
0: Crabgrass plant response rating (crabgrass; [3]) | Crabgrass plant response rating (crabgrass; [9]) | Giant foxtail plant response rating (giant foxtail; [3]) | Wheat plant response rating (wheat; [3]) | Wheat plant response rating (wheat; [4]) | Plant response rating, Wheat (wheat; [5]) | Plant response rating, Wheat (wheat; [6]) | Plant response rating, Wheat (wheat; [7]) | Wheat plant response rating (wheat; [8]) | Wheat plant response rating (wheat; [9]) | Ducksalad plant response rating (duck salad; [3]) | Ducksalad plant response rating (duck salad; Rate 250 g/ha, headed Pre-emergence (flood test species), scale 0 to 10 (0 no effect, 10 complete control)) | Ducksalad plant response rating (duck salad; Rate 500 g/ha, Postemergence section of Table B, 0 to 10 scale (0 no effect, 10 complete control)) | Plant response rating, Ducksalad (duck salad; Rate 500 g/ha, headed Pre-emergence (flood test species), scale 0 to 10 (0 no effect, 10 complete control)) | Ducksalad plant response rating (duck salad; flood test, listed under Postemergence, Rate 250 g/ha, scale 0 to 10, 0 no effect, 10 complete control) | Plant response rating, C. purslane (common pursiane; [11]) | Plant response rating, C. purslane (common pursiane; [12]) | Plant response rating, C. purslane (common pursiane; [13]) | Plant response rating, C. purslane (common pursiane; [14]) | Plant response rating, C. purslane (common pursiane; Rate 250 g/ha) | Plant response rating, C. purslane (common pursiane; Rate 500 g/ha) | Plant response rating, Large crabgrass (large crabgrass; [11]) | Plant response rating, Sandbur (sandbur; [11]) | Plant response rating, Sandbur (sandbur; [12]) | Sandbur plant response rating (sandbur; [13]) | Sandbur plant response rating (sandbur; [14]) | Plant response rating, Sandbur (sandbur; Rate 250 g/ha) | Plant response rating, Sandbur (sandbur; Rate 500 g/ha) | Plant response rating, Spanishneedles (Spanishneedles; [11]) | Plant response rating, Spanishneedles (Spanishneedles; [12]) | Spanishneedles plant response rating (Spanishneedles; [13])
70: Plant response rating, Wheat (winter) (winter wheat [1]; Rate 1000 g/ha, 0 to 100 scale, 0 is no effect and 100 is complete control) | Plant response rating, Wheat (winter) (winter wheat [1]; Rate 500 g/ha, 0 to 100 scale, 0 no effect, 100 complete control) | Plant response rating, Blackgrass (blackgrass; [16]) | Plant response rating, I. Ryegrass (Italian ryegrass; [16]) | Plant response rating, Wheat (winter) (winter wheat [2]; [15]) | Plant response rating, Wild oat (wild oat; Rate 1000 g/ha)
30: Plant response rating, Barley (winter) (winter barley; Rate 250 g/ha, 0 to 100 scale)
40: Plant response rating, Large crabgrass (large crabgrass; [13]) | Plant response rating, Blackgrass (blackgrass; Rate 250 g/ha, 0 to 100 scale) | Plant response rating, Wheat (winter) (winter wheat [2]; Rate 250 g/ha, 0 to 100 scale) | Plant response rating, Barley (winter) (winter barley; [15])
55: Plant response rating, Blackgrass (blackgrass; [15])
80: Plant response rating, Green foxtail (green foxtail; [16])
4: Plant response rating, Crabgrass (crabgrass; [6])
10: Plant response rating, Crabgrass (crabgrass; [7]) | Crabgrass plant response rating (crabgrass; [8]) | Plant response rating, Giant foxtail (giant foxtail; [5]) | Plant response rating, Giant foxtail (giant foxtail; [6]) | Plant response rating, Giant foxtail (giant foxtail; [7]) | Giant foxtail plant response rating (giant foxtail; [8]) | Spanishneedles plant response rating (Spanishneedles; [14])
85: Plant response rating, Green foxtail (green foxtail; [15])
65: Plant response rating, I. Ryegrass (Italian ryegrass; [15])
60: Plant response rating, Wheat (winter) (winter wheat [1]; Rate 250 g/ha, 0 to 100 scale (0 no effect, 100 complete control)) | Plant response rating, Green foxtail (green foxtail; Rate 250 g/ha, 0 to 100 scale) | Plant response rating, Wild oat (wild oat; Rate 500 g/ha)
6: Giant foxtail plant response rating (giant foxtail; [10])
2: Ducksalad plant response rating (duck salad; Rate 1000 g/ha, Pre-emergence (as headed), scale 0 to 10) | Ducksalad plant response rating (duck salad; Rate 2000 g/ha, Pre-emergence (as headed), scale 0 to 10)
3: Crabgrass plant response rating (crabgrass; [4]) | Crabgrass plant response rating (crabgrass; [10])
